Laboratory results as given in patent US20200256869A1, “SYSTEMS AND METHODS FOR THE ASSESSMENT OF G-PROTEIN ACTIVATION” (UNIVERSITÉ DE MONTRÉAL, priority 2017, published 2020).

Columns and labels:
Type in all cases: cell-based
[1] = target: T1, thromboxane receptor (TPαR) (Homo sapiens, UniProt P21731); assay: TPαR-mediated G12 activation at the PM, PDZRG-RlucII BRET
T1 construct: host or cells: HEK293
T1 sequence (P21731 1-343): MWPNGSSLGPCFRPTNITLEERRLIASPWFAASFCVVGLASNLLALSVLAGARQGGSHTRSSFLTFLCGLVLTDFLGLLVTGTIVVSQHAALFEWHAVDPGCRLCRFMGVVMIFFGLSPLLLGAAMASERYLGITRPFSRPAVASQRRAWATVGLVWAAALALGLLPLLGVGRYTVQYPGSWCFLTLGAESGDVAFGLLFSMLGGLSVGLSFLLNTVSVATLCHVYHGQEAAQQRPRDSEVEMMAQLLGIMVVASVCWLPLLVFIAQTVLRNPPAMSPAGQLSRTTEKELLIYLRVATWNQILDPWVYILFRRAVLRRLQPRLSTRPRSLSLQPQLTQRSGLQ
Source text: (§1) FIGS. 4D and 4E show DRCs of TPαR ligands on G12 (FIG. 4D) and 13 (FIG. 4E) activation at the PM using PDZRG-Rlucll. HEK293 cells cotransfected with thromboxane receptor (TPαR), PDZRG-Rlucll, rGFP-CAAX were stimulated with known full agonists (U46619, I-BOP, CTA2), with a partial agonist (U51605) and the antagonists I-SAP and SQ 29,558. Results were normalized and presented as % of I-BOP response (n=4) +/−SEM.
(§2) Transfection using Poly(ethylenimine) (PEI): Two days before the experiments, HEK293 cells were washed with PBS containing no calcium or magnesium, detached and transfected with the indicated plasmids using PEI as a transfecting agent (at a ratio of 3 to 1, PEI/DNA). Cells were then directly seeded in 96-well plates pre-treated or not with poly-L-ornithine hydrobromide at a density of 35 000 cells per well. All experiments read in the Spark 10M reader were performed using non-treated plates.
(§3) BRET measurements 48-hours post transfection, cells were washed twice with pre-warmed Tyrode's buffer (140 mM NaCl, 2.7 mM KCl, 1 mM CaCl2, 12 mM NaHCO3, 5.6 mM D-glucose, 0.5 mM MgCl2, 0.37 mM NaH2PO4, 25 mM HEPES, pH 7.4) before being stimulated with various concentrations of ligands at either room temperature (RT) or 37° C., as indicated. The cell-permeable substrate, coelenterazine Purple I was added at a final concentration of 1 μM in Tyrode's buffer for at least 6 min (at 37° C.) to 10min (at RT) before BRET measurements. Measurements were either taken on a Spark 10M reader (Tecan Life Sciences; donor: 360 nm/380 nm & acceptor: 505 nm/570 nm), a LB 941 multimode plate reader (Berthold Technologies; donor: 400/470-nm and acceptor: 515/520-nm filters) or a Synergy Neo (Biotek: (donor: 400/480 nm, acceptor: 515/530 nm). The BRET signal was determined by calculating the ratio of the light intensity emitted by the rGFP (acceptor) over the light intensity emitted by the Rlucll (donor). All the BRET measurements were performed at 37° C. in the Tristar reader (FIGS. 1-2M & FIGS. 2R-7F), at RT in a Spark 10M reader (FIGS. 2N-2Q & FIGS. 8B-8S) or at RT in a Synergy Neo (FIGS. 8T-8X).

[2] = target: T1, thromboxane receptor (TPαR); assay: TPαR-mediated G13 activation at the PM, PDZRG-RlucII BRET
Source text: as §1, §2, §3

[3] = target: T1, thromboxane receptor (TPαR); assay: TPαR-mediated G12 activation at the PM, P115RG-RlucII BRET
Source text: (§4) FIGS. 5B and 5C show DRCs of TPαR ligands on G12 (FIG. 5B) and G13 (FIG. 5C) activation at the PM using P115RG-Rlucll. HEK293 cells cotransfected with thromboxane receptor (TPαR), P115RG-Rlucll, rGFP-CAAX were stimulated with U46619, I-BOP, CTA2, U51605, I-SAP and SQ 29,558. Results were normalized and presented as % of I-BOP response (n=4) +/−SEM.
as §2, §3

[4] = target: T1, thromboxane receptor (TPαR); assay: TPαR-mediated G13 activation at the PM, P115RG-RlucII BRET
Source text: as §4, §2, §3

[5] = target: T1, thromboxane receptor (TPαR); assay: TPαR-mediated Gq activation at the PM, P63RG-RlucII BRET
Source text: (§5) FIGS. 6J-6M show DRCs of TPαR ligands on Gq (FIG. 6J), G11 (FIG. 6K), G14 (FIG. 6L) and G15 (FIG. 6M) activation at the PM using P63RG-Rlucll under the optimal conditions determined in FIGS. 6B-6E. HEK293 cells cotransfected with thromboxane receptor (TPαR), P63RG-Rlucll, rGFP-CAAX were stimulated with U46619, I-BOP, CTA2, U51605, I-SAP and SQ 29,558. Results were normalized and presented as % of I-BOP response (between n=3 and n=5) +/−SEM.
as §2, §3

[6] = target: T1, thromboxane receptor (TPαR); assay: TPαR-mediated G11 activation at the PM, P63RG-RlucII BRET
Source text: as §5, §2, §3

[7] = target: T1, thromboxane receptor (TPαR); assay: TPαR-mediated G14 activation at the PM, P63RG-RlucII BRET
Source text: as §5, §2, §3

[8] = target: T1, thromboxane receptor (TPαR); assay: TPαR-mediated G15 activation at the PM, P63RG-RlucII BRET
Source text: as §5, §2, §3

[9] = target: T2, D1R (Homo sapiens, UniProt P21728); assay: Gz activation by D1R, Rap1GAP (SSS-AAA)-RlucII translocation to PM (BRET)
T2 construct: expressed in transfected cells; host or cells: HEK293
Method: (§6) Cells were then directly seeded in 96-well plates pre-treated or not with poly-L-ornithine hydrobromide at a density of 35 000 cells per well. All experiments read in the Spark 10M reader were performed using non-treated plates.
(§7) BRET measurements 48-hours post transfection, cells were washed twice with pre-warmed Tyrode's buffer (140 mM NaCl, 2.7 mM KCl, 1 mM CaCl2, 12 mM NaHCO3, 5.6 mM D-glucose, 0.5 mM MgCl2, 0.37 mM NaH2PO4, 25 mM HEPES, pH 7.4) before being stimulated with various concentrations of ligands at either room temperature (RT) or 37° C., as indicated. The cell-permeable substrate, coelenterazine Purple I was added at a final concentration of 1 μM in Tyrode's buffer for at least 6 min (at 37° C.) to 10min (at RT) before BRET measurements.
(§8) Data Analysis. Estimation of the EC50 values were calculated using the GraphPad® Prism curve fitting program. The curves presented throughout this study, representing the best fits, and were also generated using this GraphPad® Prism program.

[10] = target: T3, D5R (Homo sapiens, UniProt P21918); assay: Gz activation by D5R, Rap1GAP (SSS-AAA)-RlucII translocation to PM (BRET)
T3 construct: expressed in transfected cells; host or cells: HEK293
Method: as §6, §7, §8

[11] = target: T4, D3R (Homo sapiens, UniProt P35462); assay: Gz activation by D3R, Rap1GAP (SSS-AAA)-RlucII translocation to PM (BRET)
T4 construct: expressed in transfected cells; host or cells: HEK293
Method: as §6, §7, §8

[12] = target: T5, Dopamine D4 receptor (D4R) (Homo sapiens, UniProt P21917); settings: HEK293, Rap1GAP (SSS-AAA)-RlucII, rGFP-CAAX, Gz, read-out: EC50, Gz activation
T5 construct: signal peptide […]; host or cells: HEK293
T5 sequence (P21917 1-419): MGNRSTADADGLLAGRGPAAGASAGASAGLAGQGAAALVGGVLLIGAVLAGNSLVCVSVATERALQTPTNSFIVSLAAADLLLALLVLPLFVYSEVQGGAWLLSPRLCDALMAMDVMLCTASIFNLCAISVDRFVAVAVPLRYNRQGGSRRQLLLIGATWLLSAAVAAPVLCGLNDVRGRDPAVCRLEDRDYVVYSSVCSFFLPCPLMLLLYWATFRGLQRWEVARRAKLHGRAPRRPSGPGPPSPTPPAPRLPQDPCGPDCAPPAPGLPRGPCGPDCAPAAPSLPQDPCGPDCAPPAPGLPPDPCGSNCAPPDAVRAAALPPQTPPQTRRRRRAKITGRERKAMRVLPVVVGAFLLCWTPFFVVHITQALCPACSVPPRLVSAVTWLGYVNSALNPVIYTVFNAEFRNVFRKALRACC
Method: as §6, §7, §8

[13] = target: T6, D2R (Homo sapiens, UniProt P14416); assay: Gz activation by D2R, Rap1GAP (SSS-AAA)-RlucII translocation to PM (BRET)
T6 construct: expressed in transfected cells; host or cells: HEK293
Method: as §6, §7, §8

T3 sequence (P21918 whole entry): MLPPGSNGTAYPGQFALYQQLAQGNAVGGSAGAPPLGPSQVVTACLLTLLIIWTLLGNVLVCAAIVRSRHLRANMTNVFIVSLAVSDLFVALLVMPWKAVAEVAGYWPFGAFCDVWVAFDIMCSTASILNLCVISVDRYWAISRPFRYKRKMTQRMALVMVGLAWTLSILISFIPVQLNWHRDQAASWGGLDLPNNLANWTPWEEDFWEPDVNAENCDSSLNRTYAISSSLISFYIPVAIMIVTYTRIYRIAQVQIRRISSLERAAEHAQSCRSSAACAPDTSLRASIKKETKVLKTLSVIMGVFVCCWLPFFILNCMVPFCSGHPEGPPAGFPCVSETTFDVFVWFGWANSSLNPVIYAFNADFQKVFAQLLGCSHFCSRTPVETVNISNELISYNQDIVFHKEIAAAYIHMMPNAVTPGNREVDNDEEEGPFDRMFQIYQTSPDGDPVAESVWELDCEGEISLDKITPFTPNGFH
T4 sequence (P35462 whole entry): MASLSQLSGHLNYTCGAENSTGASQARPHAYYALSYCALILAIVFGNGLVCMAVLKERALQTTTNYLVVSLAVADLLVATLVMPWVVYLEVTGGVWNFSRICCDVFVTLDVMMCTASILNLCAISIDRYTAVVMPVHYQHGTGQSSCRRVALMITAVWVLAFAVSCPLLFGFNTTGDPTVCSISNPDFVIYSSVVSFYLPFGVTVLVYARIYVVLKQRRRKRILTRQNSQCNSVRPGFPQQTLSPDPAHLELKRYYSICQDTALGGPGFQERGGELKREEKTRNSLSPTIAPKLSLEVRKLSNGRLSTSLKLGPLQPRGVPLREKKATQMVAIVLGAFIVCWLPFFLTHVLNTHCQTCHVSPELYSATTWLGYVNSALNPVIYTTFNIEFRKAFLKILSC
T2 sequence (P21728 whole entry): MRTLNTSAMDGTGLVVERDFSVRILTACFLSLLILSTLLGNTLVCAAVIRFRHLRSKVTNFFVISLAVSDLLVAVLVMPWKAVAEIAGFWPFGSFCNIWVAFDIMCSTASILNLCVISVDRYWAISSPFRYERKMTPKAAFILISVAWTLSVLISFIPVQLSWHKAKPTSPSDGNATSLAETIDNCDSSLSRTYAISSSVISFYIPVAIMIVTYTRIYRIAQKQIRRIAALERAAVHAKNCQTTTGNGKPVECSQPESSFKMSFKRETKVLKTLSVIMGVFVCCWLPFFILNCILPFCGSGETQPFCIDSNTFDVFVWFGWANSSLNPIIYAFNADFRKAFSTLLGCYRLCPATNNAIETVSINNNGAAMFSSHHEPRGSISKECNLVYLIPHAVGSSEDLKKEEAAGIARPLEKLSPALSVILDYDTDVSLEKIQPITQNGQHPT
T6 sequence (P14416 whole entry): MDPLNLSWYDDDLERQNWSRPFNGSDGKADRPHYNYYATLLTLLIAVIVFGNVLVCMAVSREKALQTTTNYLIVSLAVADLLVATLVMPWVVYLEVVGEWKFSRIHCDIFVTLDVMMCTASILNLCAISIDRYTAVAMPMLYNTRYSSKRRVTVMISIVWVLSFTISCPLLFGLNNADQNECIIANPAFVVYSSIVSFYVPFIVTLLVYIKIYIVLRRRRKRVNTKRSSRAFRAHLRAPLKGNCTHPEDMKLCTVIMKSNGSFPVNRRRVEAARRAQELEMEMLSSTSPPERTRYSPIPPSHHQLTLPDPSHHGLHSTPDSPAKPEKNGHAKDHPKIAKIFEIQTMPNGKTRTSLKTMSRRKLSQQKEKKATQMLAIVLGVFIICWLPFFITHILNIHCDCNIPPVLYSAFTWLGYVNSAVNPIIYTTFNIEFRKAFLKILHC

Structure (SMILES)	G12 activation, agonist character in words [1]	G13 activation, agonist character in words [2]	G12 activation, agonist character in words [3]	G13 activation, agonist character in words [4]	Gq activation, agonist character in words [5]	G11 activation, agonist character in words [6]	G14 activation, agonist character in words [7]	G15 activation, agonist character in words [8]	G13 activation, efficacy ([2]; normalized to I-BOP response)	G13 activation, efficacy ([4]; normalized to I-BOP response)	Gq activation, efficacy ([5]; rGFP-CAAX)	agonist properties (Gz activation), in words [13]	agonist properties (Gz activation), in words [11]	agonist properties (Gz activation), in words [9]	agonist properties (Gz activation), in words [10]	EC50 ([11]; HEK293, Rap1GAP (SSS-AAA)-RlucII, rGFP-CAAX, Gz) [nM]	EC50 [12] [nM]
CCCCC[C@H](O)/C=C/[C@H]1CC2CC(C2)[C@@H]1C/C=C\CCCC(=O)O [CTA2]	full agonists	full agonists	full agonists	full agonists	full agonists	full agonists	full agonists	full agonists	–	–	–	–	–	–	–	–	–
Cc1c(C2CCN(CCc3ccccc3)CC2)noc1-c1ccc(Cl)cc1 [L741,742]	–	–	–	–	–	–	–	–	–	–	–	–	–	did not show agonist nor inverse properties	did not show agonist nor inverse properties	–	–
CCCCC[C@H](O)/C=C/[C@@H]1[C@@H](C/C=C\CCCC(=O)O)[C@H]2CO[C@@H]1C2 [U46619]	full agonists	full agonists	full agonists	full agonists	full agonists	full agonists	full agonists	full agonists	–	–	–	–	–	–	–	–	–
Cc1cccc(NC(=O)CN2CCC(c3ccccn3)CC2)c1 [A412,997]	–	–	–	–	–	–	–	–	–	–	–	–	–	–	–	281	0.04
CC1(C)[C@@H]2C[C@H](NS(=O)(=O)c3ccc(I)cc3)[C@@H](C/C=C\CCCC(=O)O)[C@H]1C2 [I-SAP]	fails to induce significant G12 activation	–	neutral	–	fail to induce significant activation	fail to induce significant activation	fail to induce significant activation	fail to induce significant activation	53 % of Max	19 % of Max	7 % of I-BOP max response	–	–	–	–	–	–
COc1ccccc1N1CCN(CCN(C(=O)C2CCCCC2)c2ccccn2)CC1 [WAY-100635]	–	–	–	–	–	–	–	–	–	–	–	only showed agonist properties on D4R	only showed agonist properties on D4R	only showed agonist properties on D4R	only showed agonist properties on D4R	–	–

Continued, in another order:

G12 activation, agonist character in words [1]	G13 activation, agonist character in words [2]	G12 activation, agonist character in words [3]	G13 activation, agonist character in words [4]	Gq activation, agonist character in words [5]	G11 activation, agonist character in words [6]	G14 activation, agonist character in words [7]	G15 activation, agonist character in words [8]	G13 activation, efficacy ([2]; normalized to I-BOP response)	G13 activation, efficacy ([4]; normalized to I-BOP response)	Gq activation, efficacy ([5]; rGFP-CAAX)	agonist properties (Gz activation), in words [13]	agonist properties (Gz activation), in words [11]	Structure (SMILES)	agonist properties (Gz activation), in words [9]	agonist properties (Gz activation), in words [10]	EC50 ([11]; HEK293, Rap1GAP (SSS-AAA)-RlucII, rGFP-CAAX, Gz) [nM]	EC50 [12] [nM]
not acting as a TPαR agonist	not acting as a TPαR agonist	not acting as a TPαR agonist	not acting as a TPαR agonist	fail to induce significant activation	fail to induce significant activation	fail to induce significant activation	fail to induce significant activation	–	–	–	–	–	O=C(O)CCC/C=C\C[C@@H]1[C@H](CNNC(=O)Nc2ccccc2)[C@H]2CC[C@@H]1O2 [SQ 29,558]	–	–	–	–
full agonists	full agonists	full agonists	full agonists	full agonists	full agonists	full agonists	full agonists	–	–	–	–	–	O=C(O)CCC/C=C\C[C@@H]1[C@@H](/C=C/[C@@H](O)COc2ccc(I)cc2)[C@H]2CC[C@@H]1O2 [I-BOP]	–	–	–	–
